Reference: ChEMBL document CHEMBL1150981, “Synthesis of new maleimide derivatives of daunorubicin and biological activity of acid labile transferrin conjugates” (Bioorg Med Chem Lett, 1997)
The source made the active and inactive calls. The calls are words filed in the database; no cut-off is given here.

Columns and labels:
MEXF989 [1] = assay: Tested for its inhibitory activity against human melanoma cells ([…]) using a clonogenic assay at 0.01-1.0 uM; […]; format: functional, cell-based
LXFL 529/11 [2] = assay: Tested for its inhibitory activity against xenograft (LXFL 529/11, lung, large cell) using a clonogenic assay at 0.01-1.0 uM; No activity; format: functional, cell-based; conditions: Homo sapiens
MEXF989 [3] = assay: Tested for its inhibitory activity against human melanoma cells (MEFX 989) using a clonogenic assay at 0.01-1.0 uM; format: functional; conditions: MEXF 989
LXFL 529/11 [4] = assay: Tested for its inhibitory activity against xenograft (LXFL 529/11, lung, large cell) using a clonogenic assay; format: functional, Homo sapiens
[5] = Tested for the half life period at pH 5.0; format: ADME

Row | Structure (SMILES) | Activity (MEXF989 [1]) | Activity (LXFL 529/11 [2]) | IC70 (MEXF989 [3]) [µM] | IC90 (LXFL 529/11 [4]) [µM] | half-life [5] [h]
1 | COc1cccc2c1C(=O)c1c(O)c3c(c(O)c1C2=O)C[C@@](O)(C(C)=O)C[C@@H]3OC1CC(NC(=O)c2cccc(N3C(=O)C=CC3=O)c2)C(O)C(C)O1 (stereo not given in full) | inactive | inactive | – | – | –
2 | COc1cccc2c1C(=O)c1c(O)c3c(c(O)c1C2=O)C[C@@](O)(/C(C)=N/NC(=O)c1cccc(N2C(=O)C=CC2=O)c1)C[C@@H]3OC1CC(N)C(O)C(C)O1 (stereo not given in full) | – | – | 0.39 | <0.01 | 20
3 | COc1cccc2c1C(=O)c1c(O)c3c(c(O)c1C2=O)C[C@@](O)(C(C)=O)C[C@@H]3O[C@H]1C[C@H](N)[C@H](O)[C@H](C)O1 [DAUNORUBICIN] | – | – | 0.26 | 0.03 | –
4 | COc1cccc2c1C(=O)c1c(O)c3c(c(O)c1C2=O)C[C@@](O)(/C(C)=N/NC(=O)c1ccc(CN2C(=O)C=CC2=O)cc1)C[C@@H]3OC1CC(N)C(O)C(C)O1 (stereo not given in full) | – | – | 0.022 | <0.01 | 30
